Reference: patent US11547681B2, “N-acylethanolamide derivatives and uses thereof” (ELIEM THERAPEUTICS, INC., priority 2016, dated 2023)

Assay: in vitro
Conditions: for Concentration (μM) of analyte PEA, 0 min / Concentration (μM) of analyte PEA, 10 min / Concentration (μM) of analyte PEA, 20 min / Concentration (μM) of analyte PEA, 30 min / Concentration (μM) of analyte PEA, 60 min / % Remaining of Initial (n = 1), 0 min / % Remaining of Initial (n = 1), 10 min / % Remaining of Initial (n = 1), 20 min / % Remaining of Initial (n = 1), 30 min / % Remaining of Initial (n = 1), 60 min: 1 μM; for % Remaining of Initial (n = 1), 0 min: s9, 0 h; for % Remaining of Initial (n = 1), 10 min: s9, 10 min; for % Remaining of Initial (n = 1), 20 min: s9, 20 min; for % Remaining of Initial (n = 1), 30 min: s9, 0.5 h; for % Remaining of Initial (n = 1), 60 min: s9, 1 h; for half-life at 1 μM: s9, Half-life (min)
Protocol: Reaction mixture, minus cofactors, was prepared as described below. Test article was added into the reaction mixture at a final concentration of 1 μM. […] An aliquot of the reaction mixture (without cofactor cocktail) was equilibrated in a shaking water bath at 37° C. for 3 minutes. The reaction was initiated by the addition of cofactor cocktail (see below), and the mixture was then incubated in a shaking water bath at 37° C. Aliquots (100 μL) were withdrawn 0, 10, 20, 30 and 60 minutes. Test article samples were immediately combined with 300 μL of ice-cold acetonitrile containing 1% formic acid. Control samples were immediately combined with 400 μL of ice-cold 50/50 acetonitrile (ACN)/dH2O containing 0.1% formic acid and internal standard to terminate the reaction. Samples were then mixed and centrifuged to precipitate proteins. Calibration standards were prepared in matched matrix. Samples and standards were assayed by LC-MS/MS using electrospray ionization for both the dosed prodrug and the expected drug (PEA). Analytical conditions are outlined in Appendix 8-1. Test article concentration at each time point was compared to the test article concentration at time 0 to determine the percent remaining at each time point. Half-lives were calculated using GraphPad software, fitting to a single-phase exponential decay equation.
Reaction mixture, minus cofactors, was prepared as described below. Test article was added into the reaction mixture at a final concentration of 1 μM. […] An aliquot of the reaction mixture (without cofactor cocktail) was equilibrated in a shaking water bath at 37° C. for 5 minutes. Reaction was initiated by the addition of cofactor cocktail (see below), and mixture was then incubated in a shaking water bath at 37° C. Aliquots (100 μL) were withdrawn at 0, 10, 20, 30, and 60 minutes. Test article samples were immediately combined with 300 μL of ice-cold acetonitrile containing 1% formic acid. Control samples were immediately combined with 400 μL of ice-cold 50/50 acetonitrile (ACN)/dH2O containing 0.1% formic acid and internal standard to terminate the reaction. Samples were then mixed and centrifuged to precipitate proteins. Calibration standards were prepared in matched matrix. Samples and standards were assayed by LC-MS/MS using electrospray ionization for both dosed prodrug and expected drug (PEA). Analytical conditions are outlined in Appendix 10-1. Test article concentration at each time point was compared to test article concentration at time 0 to determine the percent remaining at each time point. Half-lives were calculated using GraphPad software, fitting to a single-phase exponential decay equation.
The reaction mixture, minus cofactors, was prepared as described below. Test article was added into the reaction mixture at a final concentration of 1 μM. […] An aliquot of the reaction mixture (without cofactor cocktail) was equilibrated in a shaking water bath at 37° C. for 3 minutes. Reaction was initiated by the addition of cofactor cocktail (see below), and the mixture was then incubated in a shaking water bath at 37° C. Aliquots (100 μL) were withdrawn at 0, 10, 20, 30, and 60 minutes. Test article samples were immediately combined with 300 μL of ice-cold acetonitrile containing 1% formic acid. Control samples were immediately combined with 400 μL of ice-cold 50/50 acetonitrile (ACN)/dH2O containing 0.1% formic acid and internal standard to terminate the reaction. Samples were then mixed and centrifuged to precipitate proteins. Calibration standards were prepared in matched matrix. Samples and standards were assayed by LC-MS/MS using electrospray ionization for both dosed prodrug and expected drug (PEA). Analytical conditions are outlined in Appendix 13-1. Test article concentration at each time point was compared to the test article concentration at time 0 to determine the percent remaining at each time point.

CC/C=C\C/C=C\C/C=C\C/C=C\C/C=C\CCCC(=O)OCCNC(=O)CCCCCCCCCCCCCCC [Compound I-5]
Concentration (μM) of analyte PEA, 0 min (both, human): 0.024 µM | Concentration (μM) of analyte PEA, 10 min (both, human): 0.036 µM | Concentration (μM) of analyte PEA, 20 min (both, human): 0.036 µM | Concentration (μM) of analyte PEA, 30 min (both, human): 0.025 µM | Concentration (μM) of analyte PEA, 60 min (both, human): 0.018 µM | % Remaining of Initial (n = 1), 0 min (both, human): 100% | % Remaining of Initial (n = 1), 10 min (both, human): 80% | % Remaining of Initial (n = 1), 20 min (both, human): 81% | % Remaining of Initial (n = 1), 30 min (both, human): 70% | % Remaining of Initial (n = 1), 60 min (both, human): 72% | half-life at 1 μM (both, human): > 1 h | Concentration (μM) of analyte PEA, 0 min (male, Beagle, dog): 0.024 µM | Concentration (μM) of analyte PEA, 10 min (male, Beagle, dog): 0.044 µM | Concentration (μM) of analyte PEA, 20 min (male, Beagle, dog): 0.036 µM | Concentration (μM) of analyte PEA, 30 min (male, Beagle, dog): 0.041 µM | Concentration (μM) of analyte PEA, 60 min (male, Beagle, dog): 0.038 µM | % Remaining of Initial (n = 1), 0 min (male, Beagle, dog): 100% | % Remaining of Initial (n = 1), 10 min (male, Beagle, dog): 72% | % Remaining of Initial (n = 1), 20 min (male, Beagle, dog): 79% | % Remaining of Initial (n = 1), 30 min (male, Beagle, dog): 74% | % Remaining of Initial (n = 1), 60 min (male, Beagle, dog): 85% | half-life at 1 μM (male, Beagle, dog): > 1 h | Concentration (μM) of analyte PEA, 0 min (male, CD-1, mouse): 0.046 µM | Concentration (μM) of analyte PEA, 10 min (male, CD-1, mouse): 0.061 µM | Concentration (μM) of analyte PEA, 20 min (male, CD-1, mouse): 0.043 µM | Concentration (μM) of analyte PEA, 30 min (male, CD-1, mouse): 0.029 µM | Concentration (μM) of analyte PEA, 60 min (male, CD-1, mouse): 0.018 µM | % Remaining of Initial (n = 1), 0 min (male, CD-1, mouse): 100% | % Remaining of Initial (n = 1), 10 min (male, CD-1, mouse): 66% | % Remaining of Initial (n = 1), 20 min (male, CD-1, mouse): 50% | % Remaining of Initial (n = 1), 30 min (male, CD-1, mouse): 59% | % Remaining of Initial (n = 1), 60 min (male, CD-1, mouse): 50% | Concentration (μM) of analyte PEA, 0 min (male, Sprague-Dawley, rat): 0.020 µM | Concentration (μM) of analyte PEA, 10 min (male, Sprague-Dawley, rat): 0.025 µM | Concentration (μM) of analyte PEA, 20 min (male, Sprague-Dawley, rat): 0.037 µM | Concentration (μM) of analyte PEA, 30 min (male, Sprague-Dawley, rat): 0.026 µM | Concentration (μM) of analyte PEA, 60 min (male, Sprague-Dawley, rat): 0.013 µM | % Remaining of Initial (n = 1), 0 min (male, Sprague-Dawley, rat): 100% | % Remaining of Initial (n = 1), 10 min (male, Sprague-Dawley, rat): 98% | % Remaining of Initial (n = 1), 20 min (male, Sprague-Dawley, rat): 82% | % Remaining of Initial (n = 1), 30 min (male, Sprague-Dawley, rat): 75% | % Remaining of Initial (n = 1), 60 min (male, Sprague-Dawley, rat): 67% | half-life at 1 μM (male, Sprague-Dawley, rat): > 1 h | half-life at 1 μM (male, Sprague-Dawley, rat, calculated half-life in parentheses): 1.52 h

CCCCC/C=C\C/C=C\CCCCCCCC(=O)OCCNC(=O)CCCCCCCCCCCCCCC [Compound I-6]
Concentration (μM) of analyte PEA, 0 min (both, human): 0.014 µM | Concentration (μM) of analyte PEA, 10 min (both, human): 0.037 µM | Concentration (μM) of analyte PEA, 20 min (both, human): 0.022 µM | Concentration (μM) of analyte PEA, 30 min (both, human): 0.022 µM | Concentration (μM) of analyte PEA, 60 min (both, human): 0.016 µM | % Remaining of Initial (n = 1), 0 min (both, human): 100% | % Remaining of Initial (n = 1), 10 min (both, human): 80% | % Remaining of Initial (n = 1), 20 min (both, human): 102% | % Remaining of Initial (n = 1), 30 min (both, human): 95% | % Remaining of Initial (n = 1), 60 min (both, human): 77% | half-life at 1 μM (both, human): > 1 h | Concentration (μM) of analyte PEA, 0 min (male, Beagle, dog): 0.016 µM | Concentration (μM) of analyte PEA, 10 min (male, Beagle, dog): 0.044 µM | Concentration (μM) of analyte PEA, 20 min (male, Beagle, dog): 0.041 µM | Concentration (μM) of analyte PEA, 30 min (male, Beagle, dog): 0.049 µM | Concentration (μM) of analyte PEA, 60 min (male, Beagle, dog): 0.037 µM | % Remaining of Initial (n = 1), 0 min (male, Beagle, dog): 100% | % Remaining of Initial (n = 1), 10 min (male, Beagle, dog): 101% | % Remaining of Initial (n = 1), 20 min (male, Beagle, dog): 106% | % Remaining of Initial (n = 1), 30 min (male, Beagle, dog): 102% | % Remaining of Initial (n = 1), 60 min (male, Beagle, dog): 110% | half-life at 1 μM (male, Beagle, dog): > 1 h | Concentration (μM) of analyte PEA, 0 min (male, CD-1, mouse): 0.030 µM | Concentration (μM) of analyte PEA, 10 min (male, CD-1, mouse): 0.041 µM | Concentration (μM) of analyte PEA, 20 min (male, CD-1, mouse): 0.033 µM | Concentration (μM) of analyte PEA, 30 min (male, CD-1, mouse): 0.031 µM | Concentration (μM) of analyte PEA, 60 min (male, CD-1, mouse): 0.015 µM | % Remaining of Initial (n = 1), 0 min (male, CD-1, mouse): 100% | % Remaining of Initial (n = 1), 10 min (male, CD-1, mouse): 87% | % Remaining of Initial (n = 1), 20 min (male, CD-1, mouse): 87% | % Remaining of Initial (n = 1), 30 min (male, CD-1, mouse): 99% | % Remaining of Initial (n = 1), 60 min (male, CD-1, mouse): 75% | half-life at 1 μM (male, CD-1, mouse): > 1 h | Concentration (μM) of analyte PEA, 0 min (male, Sprague-Dawley, rat): 0.020 µM | Concentration (μM) of analyte PEA, 10 min (male, Sprague-Dawley, rat): 0.035 µM | Concentration (μM) of analyte PEA, 20 min (male, Sprague-Dawley, rat): 0.021 µM | Concentration (μM) of analyte PEA, 30 min (male, Sprague-Dawley, rat): 0.021 µM | Concentration (μM) of analyte PEA, 60 min (male, Sprague-Dawley, rat): 0.013 µM | % Remaining of Initial (n = 1), 0 min (male, Sprague-Dawley, rat): 100% | % Remaining of Initial (n = 1), 10 min (male, Sprague-Dawley, rat): 64% | % Remaining of Initial (n = 1), 20 min (male, Sprague-Dawley, rat): 82% | % Remaining of Initial (n = 1), 30 min (male, Sprague-Dawley, rat): 93% | % Remaining of Initial (n = 1), 60 min (male, Sprague-Dawley, rat): 89% | half-life at 1 μM (male, Sprague-Dawley, rat): > 1 h
